According to paper PMC3282623, “High-pressure-induced water penetration into 3-isopropylmalate dehydrogenase” (Acta Crystallographica Section D: Biological Crystallography, 2012):

Molecular target: T1, SoIPMDH (3-isopropylmalate dehydrogenase from Shewanella oneidensis MR-1) (Shewanella oneidensis, UniProt Q8E9N3)
T1 construct: gene leuB; N-terminally His6-tagged (pQE-80L, BamHI/HindIII), expressed in E. coli BL21-CodonPlus(DE3)-RIL; tag removal not mentioned; homodimer
Assay: X-ray crystallography of the complex
Type: binding
Details: active site, closed dimer; calcium in active site; 10 mM IPM, 10 mM MgCl2, 200 mM calcium acetate, pH 7.0, room temperature, 0.1 MPa (also 160-650 MPa: 3vl2, 3vl3, 3vl4, 3vl6, 3vl7)

T1 sequence (Q8E9N3 2-364): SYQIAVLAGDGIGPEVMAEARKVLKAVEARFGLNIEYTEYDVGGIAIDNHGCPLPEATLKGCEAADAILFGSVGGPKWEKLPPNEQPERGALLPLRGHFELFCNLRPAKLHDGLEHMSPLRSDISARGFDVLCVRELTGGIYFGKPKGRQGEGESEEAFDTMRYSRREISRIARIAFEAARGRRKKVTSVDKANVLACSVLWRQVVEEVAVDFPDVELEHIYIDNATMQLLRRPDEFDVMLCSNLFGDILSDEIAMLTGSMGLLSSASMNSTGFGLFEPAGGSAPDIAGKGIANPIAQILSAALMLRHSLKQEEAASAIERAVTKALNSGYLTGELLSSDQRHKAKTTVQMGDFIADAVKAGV

## CC(C)[C@H](C(=O)O)[C@@H](O)C(=O)O [3-isopropylmalate]
  X-ray crystallography of the complex: the SoIPMDH dimer was crystallized in complex with its substrate, the IPM molecule
